Measurements as given in patent publication US10463709B2, “Short synthetic peptide for treating diseases and/or conditions related to angiogenesis” (MacKay Memorial Hospital, priority 2015, dated 2019).
Ends that are not written are not given here.

Key:
RPMI8226 cells = assay: MTT assay, VEGF-induced proliferation of RPMI8226 cells; assay type: cell-based
How it was run: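 After 24 h serum starvation, cells seeded at 3×10^5/well and cultured 24 h in serum-free RPMI1640 with 25 μM peptide, VEGF serving as proliferation stimulus. Viability by MTT (4 h, 37° C), DMSO solubilisation 20 min, absorbance at 570 nm.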

HUVECs [1] = assay: VEGF-induced HUVEC proliferation assay; assay type: cell-based; conditions: VEGF (10 ng/mL) + 25 μM peptide; vs untreated HUVECs
[2] = system: VEGF-induced corneal neovascularization; assay: Mouse corneal angiogenesis assay; assay type: in vivo, C57BL/6 mice; conditions: VEGF 200 ng; peptide 2.5 μg in micropellet
Experimental: Briefly, corneal micropockets were created on 6-week-old C57BL/6 mice by use of a needle. A micropellet of sucrose aluminum sulfate and hydron polymer containing 200 ng VEGF with or without 2.5 μg peptide was plated into each corneal pocket. Eyes were then photographed by a slit-lamp biomicroscope on day 7 after micropellet implantation. Ingrowth of the blood vessels into avascular cornea toward pellet was scored as positive response. The results were reported as positive corneas of total implant.

HUVECs [3] = assay: Endothelial cell capillary-like tube formation assay; assay type: cell-based
diabetic rats = assay: Vascular abnormalities in the retina of diabetic rats; assay type: in vivo, Sprague-Dawley rats; conditions: intravitreal injection
Experimental: Diabetes was induced in male Sprague-Dawley rats after fasting overnight by a single intraperitoneal injection of STZ (65 mg/kg body weight). STZ was freshly prepared in 0.1 M citrate buffer (pH 4.5). Rats with blood glucose levels >350 mg/dl for 5 days after receiving STZ were considered to be in diabetic status and were termed diabetic rats hereinafter. Blood glucose levels were checked every 2 days a blood glucose monitor. Animals that served as non-diabetic controls received an equivalent amount of citrate buffer alone. For peptide treatment, diabetic rats were anesthetized by an intraperitoneal injection of a Xylazine (10 mg/kg), and then intravitreally injected with 3 μl of the present synthetic peptide (10 mM) into one eye and an equal volume of PBS was injected into the contralateral eye (n=3-6 per group). After peptide treatment for 24 h, measurement of retinal vascular leakage by BSA-FITC (100 mg/kg body weight) was conducted in according to procedures described above.

[4] = system: STZ-induced diabetic mice; assay: Vascular abnormalities in the retina of diabetic mice; assay type: in vivo
How it was run: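 Diabetes induced by single i.p. STZ 150 mg/kg; mice with non-fasting glucose >500 mg/dl after 1 week used. Peptide 10 mg/kg or DMSO vehicle i.p. twice daily for 24 h, then BSA-FITC 100 mg/kg i.p. for 30 min; retinal lesions counted on flat mounts (average lesions/retina), FITC-BSA leakage by fluorometry (ex 488/em 535 nm) normalized to non-injected control retina.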

## NH2-Asp-Leu-Tyr-Arg-Val-Arg-Ser-COOH (DLYRVRS; not fully specified (N-terminus, C-terminus); printed as NH2-Asp-Leu-Tyr-Arg-Val-Arg-Ser-COOH) [7-mer]
RPMI8226 cells; 1 to 25 μM, RPMI8226 cells
  dose dependence of inhibitory action on VEGF-induced cell proliferation: dose dependent manner
RPMI8226 cells; VEGF 50 ng/ml, 25 μM peptide, 24 hrs, MTT
  effect on VEGF-induced proliferation of RPMI8226 cells: suppressed
HUVECs [1]
  Cell number (Fold): 0.95 ± 0.050 Fold
[2]
  VEGF-induced neovascularization in the cornea: completely abolished
HUVECs [3]; HUVECs, VEGF, 6 hrs
  effect on VEGF-induced tube formation: inhibited
HUVECs [3]; VEGF (10 ng/mL) + 25 μM peptide, vs untreated HUVECs
  Tube length (Fold): 1.24 ± 0.23 Fold
Diabetic rats
  levels of leaked FITC-BSA in entire retina vs vehicle: 0.43±0.07 fold
Diabetic rats; 24 h
  number of vascular lesion in retina: 9.2±2.15
[4]
  extravasation of FITC-BSA: may significantly prevent
[4]; 10 mg/kg intraperitoneal twice a day, 24 h
  number of vascular lesions in retina: 1.8±0.54
[4]; intraperitoneal
  hemorrhage in the retinal parenchyma: successfully blocked
[4]; leaked FITC-BSA in entire retina, vs vehicle
  Fluorescence Intensity (Fold): 0.29 ± 0.076 Fold
